# Patent US4623648A, “1-azaxanthone for use as therapeutic agent as an antipyretic, analgesic, anti-inflammatory and bronchodilator” (priority 1981, dated 1986)
# Legend:
# rat inflamed paw = assay: Hyperalgesia in rat inflamed paw (Randall and Selitto); assay type: in vivo; details: po, per os, read-out: AID2 (dose that increases twice the analgesic threshold of the control animals)
# Description: (§1) Sprague-Dawley rats, Swiss mice, California rabbits and mongrel guinea pigs and cats were used. 1-azaxanthone was administered as a suspension in 0.5 % w/v of carboxymethyl-cellulose in distilled water for oral and i.p. administration. When administered i.v. or to the nutrient liquid of the isolated tissues, a solution of the compound in isopropylidenglycerol (15 mg/ml) was used.
# Hyperalgesia in rat inflamed paw (according to L. O. Randall and J. J. Selitto, Arch. Int. Pharmacodyn. 1957, 111, 409).
# central nervous system = assay: Effect on the central nervous system; assay type: in vivo, mice and rats
# mice [1] = assay: Charcoal intestinal transit in mice; assay type: in vivo
# Description: as §1
# Charcoal intestinal transit in mice. 1-azaxanthone was administered i.p. 1 hour before the oral administration of 0.1 ml/mouse of an active charcoal suspension (10 g of charcoal and 1 g of gum arabicum +70 ml of distilled water). 1.5 hours after the charcoal administration the animals were sacrificed, and the length travelled by the charcoal from the pylorus was measured.
# guinea pig [2] = assay: Inhibition of the bronchoconstrictor response to bradykinin in guinea pig; assay type: in vivo; details: 8 mg/kg i.v.; 10 min after 6 μg and 8 min before 12 μg of bradykinin
# Description: as §1
# Inhibition of the bronchoconstrictor response to bradykinin in guinea pig (according to H. Konzett and R. Rossler, ibid.). 1-azaxanthone (8 mg/kg i.v.) produced a 100% inhibition of the response induced by bradykinin when the test compound was administered 10 min after 6 μg and 8 min before 12 μg of bradykinin.
# mice [3] = assay: Acetic acid induced writhing in mice; assay type: in vivo; details: Mus musculus; oral; 95% confidence limits 2.1-3.4
# Description: as §1
# Acetic acid induced writhing in mice (according to R. Koster et al., Fedn. Proc. 1959, 18, 412).
# granuloma pouch = assay: Granuloma pouch; details: in vivo
# guinea pig [4] = assay: Inhibition of the bronchoconstrictor response to histamine in guinea pig; assay type: in vivo; details: 8 mg/kg i.v., 5 μg histamine
# Description: as §1
# Inhibition of the bronchoconstrictor response to histamine in guinea pig (according to H. Konzett and R. Rossler, Arch. Exptl. Path. Pharmak. 1940, 195, 71). 1-azaxanthone (8 mg/kg i.v.) inhibited the response induced by 5 μg of histamine by 100% at 5 min, 67% at 10 min, 50% at 20 min, and 15% at 30 min after administration.
# rats [5] = assay: 6 months toxicity evaluation in rats; assay type: in vivo; details: 25, 50 and 100 mg/kg/day p.o.
# [6] = Solubility by the equilibrium (saturation) technique; assay type: physicochemical; details: 20-25° C.
# Description: The solubilities of 1-azaxanthone in several solvents were determined at 20-25° C. by the equilibrium (saturation) technique, measuring the concentration spectrophotometrically at 335 nm or by high pressure liquid chromatography/spectrophotometry. The following values (in mg/ml) were obtained: water: 0.08; 0.1 N HCl: 0.07; 0.1 N NaOH: 0.07; buffer pH 7.4: 0.06; methanol: 7.6; ethanol: 6.2; propyleneglycol: 5.0; ethyl acetate: 20; chloroform: >50; dioxane: 65.
# rats [7] = assay: Chronic administration to rats (92 days); assay type: in vivo
# mice [8] = assay: Phenyl-p-benzoquinone induced writhing in mice; assay type: in vivo; details: Mus musculus; oral; 95% confidence limits 6.1-11.8
# Description: as §1
# Phenyl-p-benzoquinone induced writhing in mice (according to E. A. Siegmund et al., J. Pharmacol. Exptl. Therap. 1957, 119, 453). […] I
# rat paw oedema = assay: Carrageenan rat paw oedema; assay type: in vivo; details: po, per os, 95% confidence limits 6.0-37.3
# Description: as §1
# Carrageenan rat paw oedema (according to C. A. Winter et al., Proc. Soc. Exptl. Biol. N.Y. 1962, 111, 544).
# granuloma tissue = assay: Cotton-pellet granuloma; assay type: in vivo; details: 200 mg/kg/day per os, 5 consecutive days
# Description: as §1
# Cotton-pellet granuloma (according to R. Meier et al., Experientia (Basel), 1950, 6, 469).
# rats [9] = assay: Subacute toxicity study in rats (42 days); assay type: in vivo
# cats = assay: Physiologic peristaltic movements in cats; assay type: in vivo; details: 4 mg/kg endovenously
# Description: as §1
smiles,measurement,setting,value
O=c1c2ccccc2oc2ncccc12 [1-azaxanthone],ED (2-fold analgesic threshold),rat inflamed paw,18.4 mg/kg
same,activity on the central nervous system,central nervous system; in vivo,Clear activity on the central nervous system was not observed
same,signs of depression,central nervous system; mice and rats at high doses,some signs of depression
same,inhibition of charcoal intestinal transit,mice [1]; 4 mg/kg i.p.,15%
same,inhibition of charcoal intestinal transit,mice [1]; 6.2 mg/kg i.p.,22%
same,inhibition of charcoal intestinal transit,mice [1]; 12.5 mg/kg i.p.,37%
same,inhibition of charcoal intestinal transit,mice [1]; doses lower than 4 mg/kg i.p.,inactive
same,inhibition of response induced by bradykinin,guinea pig [2],100%
same,ED50,mice [3],2.8 mg/kg
same,activity in granuloma pouch,granuloma pouch,showed activity
same,inhibition of response induced by histamine,guinea pig [4]; 5 min after administration,100%
same,inhibition of response induced by histamine,guinea pig [4]; 10 min after administration,67%
same,inhibition of response induced by histamine,guinea pig [4]; 20 min after administration,50%
same,inhibition of response induced by histamine,guinea pig [4]; 30 min after administration,15%
same,toxicity results compared with the 92 days study,rats [5],almost the same as in the 92 days study
same,solubility,[6]; 0.1 N HCl,0.07 mg/mL
same,solubility,[6]; 0.1 N NaOH,0.07 mg/mL
same,solubility,"[6]; aqueous buffer, buffer pH 7.4",0.06 mg/mL
same,solubility,"[6]; organic solvent or mixture, chloroform",> 50 mg/mL
same,solubility,"[6]; organic solvent or mixture, dioxane",65 mg/mL
same,solubility,"[6]; organic solvent or mixture, ethanol",6.2 mg/mL
same,solubility,"[6]; organic solvent or mixture, ethyl acetate",20 mg/mL
same,solubility,"[6]; organic solvent or mixture, methanol",7.6 mg/mL
same,solubility,"[6]; organic solvent or mixture, propyleneglycol",5 mg/mL
same,solubility,[6]; water,0.08 mg/mL
same,effect on body weight increase and hematological/serum parameters,rats [7]; 25 mg/kg/day oral,without statistically significant effect
same,alteration of parameters compared to control group,rats [7]; 100 mg/kg/day oral,some of these parameters were altered
same,survival,rats [7]; oral,all animals survived
same,weights of the main organs,rats [7]; oral,within normal limits
same,ED50,mice [8],8.9 mg/kg
same,ED50,rat paw oedema,21.7 mg/kg
same,inhibition of weight of dried granuloma tissue,granuloma tissue,17.4%
same,inhibition of weight of wet granuloma tissue,granuloma tissue,13.5%
same,reversibility of hepatomegaly,"rats [9]; another study, on discontinuing the administration",fully reversible
same,hepatomegaly,"rats [9]; oral, 42 days",developed a hepatomegaly
same,histology of hepatomegaly,"rats [9]; oral, 42 days",increased volume of hepatic nucleoles
same,drug-related toxic effect,"rats [9]; oral, 42 days, up to 200 mg/kg/day",did not show any drug-related toxic effect
same,inhibition of physiologic peristaltic movements,cats,inhibited physiologic peristaltic movements
